Data as given in patent publication US12472170B2, “Use of glutamate 2B receptor antagonists and sigma receptor agonists as antitussives” (Seyltx, Inc., priority 2019, dated 2025).
Values joined by “and” are separate entries in the source; they are usually repeats but may differ in a detail not shown here. Equal entries are not always repeated.

System: citric acid (1M) evoked cough in guinea pigs
Assay: Citric acid (1M) aerosol-evoked coughs and sneezes in conscious guinea pigs after oral pre-treatment
Assay type: in vivo, Male Dunkin Hartley guinea pigs
Protocol: The guinea pig species used in one study was twenty four Male Dunkin Hartley guinea pigs, each weighing between 300 and 350 g, which were supplied by Marshall Bioresources Ltd, UK.
A test compound, Ifenprodil, and Gefapixant (in powder form) were prepared and formulated by initially adding 100% propylene glycol at the required volume for the final treatment buffer. The additional buffer ingredients were added in a stepwise fashion, initially solutol and then captisol. Each ingredient was added in a volume equivalent to that which is required for the final volume of treatment buffer for the stock formulation.
In particular, for Gefapixant, this was 0.7 mg/mL, a concentration that delivers 3.5 mg/Kg in a dose volume of 5 mL/Kg. For Ifenprodil, this was 0.3 mg/mL, a concentration that delivers 1.5 mg/Kg in a dose volume of 5 mL/Kg.
Prior to the addition of each buffer ingredient, the test compound formulations were sonicated for 15 min using a Branson 1510 Sonicator. Afterwards, the initial formulation of the test compound and Gefapixant were diluted with a prepared buffer vehicle to provide additional dosing formulations. This was 0.01 to 0.2 mg/ml, preferably 0.06 mg/mL, a dose that delivers 0.3 mg/Kg in a dose volume of 5 mL/Kg.
The final test compound buffer vehicle comprised of 10:10:80 mix of propylene glycol:20% Solutol in PBS:5% Captisol in PBS.
All final test and control formulations were sonicated for 30 min prior to dosing to generate an even suspension or to ensure that the formulation had visibly dissolved.
The animals were first pre-treated (5 mL/Kg, p.o.) with the vehicle, the test compound, or Gefapixant prior to tussive agent (citric acid) exposure, using the amounts set out in Table 1 below. In each case, the route of administration of the treatment was oral.
Animals receiving Gefapixant (3.5 mg/Kg) were dosed 2 hours prior to tussive agent exposure. Animals receiving Ifenprodil (1.5 mg/Kg) were dosed 30 minutes prior to tussive agent exposure.
10 min prior to the tussive evaluation, each animal was individually placed into a purpose built exposure chamber with a supplied airflow through a nebuliser of 2 L/min, and allowed to settle into its new environment.
Following the acclimatisation period, each animal was then exposed for 10 min to an aerosol of 1M citric acid using an ultrasonic nebuliser (Aerogen) set at a nominal liquid consumption rate of 0.6 mL/min.
Coughs and sneezes elicited during the 10 minute aerosol of 1M citric acid, and a subsequent 5 minute observation period, were recorded manually to monitor the animal's welfare. […] The data was analysed for onset of cough, cough numbers and frequency, and sneezes.
The following measurements and assessments were taken for each guinea pig: • Mean total number of coughs evoked in each treatment group • Mean onset of first cough in each group • Mean number of coughs per minute during citric acid exposure in each treatment group
Inter-group deviations were statistically analyzed by a one-way analysis of variance (ANOVA). In the case of significant difference in the mean values among the different levels of treatment, comparisons versus the citric acid vehicle group were carried out using the Dunnett's test. p<0.05 was considered statistically significant.

[1] = Mean of n=6 animals, 10 min Citric acid (1M) exposure, Gefapixant 3.5 mg/Kg p.o., Ifenprodil 1.5 mg/Kg
[2] = Mean of n=6 animals, Post Exposure (5 mins) after 10 min Citric acid (1M), Gefapixant 3.5 mg/Kg p.o., Ifenprodil 1.5 mg/Kg
[3] = Total of n=6 animals, 10 min Citric acid (1M) exposure, Gefapixant 3.5 mg/Kg p.o., Ifenprodil 1.5 mg/Kg
[4] = Total of n=6 animals, Post Exposure (5 mins) after 10 min Citric acid (1M), Gefapixant 3.5 mg/Kg p.o., Ifenprodil 1.5 mg/Kg
[5] = individual animals (ID 1-6), 10 min Citric acid (1M) exposure, Gefapixant 3.5 mg/Kg p.o., Ifenprodil 1.5 mg/Kg
[6] = individual animals (ID 1-6), Post Exposure (5 mins) after 10 min Citric acid (1M), Gefapixant 3.5 mg/Kg p.o., Ifenprodil 1.5 mg/Kg

COc1cc(C(C)C)c(Oc2cnc(N)nc2N)cc1S(N)(=O)=O [Gefapixant]
Total Coughs, Mean (10 min citric acid (1M) exposure + 5 min post exposure, group mean, n=6): 23.67
Total Coughs, individual animal (10 min citric acid (1M) exposure + 5 min post exposure, individual animals 1-6): 16 and 26 and 24 and 23 and 33 and 20
average number of coughs per animal (total number of coughs) (10 min citric acid (1M) exposure + 5 min recovery, Gefapixant 3.5 mg/Kg p.o. 2 hrs prior, Ifenprodil 1.5 mg/Kg p.o. 30 min prior, n=6): 23.67 coughs per animal
reduction in mean cough frequency vs untreated control (Ifenprodil 1.5 mg/kg (p<0.01), Gefapixant 3.5 mg/kg (p<0.05)): 20%
Sneezes, Observation Period 0-1, group Mean [1]: 0.2
Sneezes, Observation Period 1-2, group Mean [1]: 0.3
Sneezes, Observation Period 2-3, group Mean [1]: 0.3
Sneezes, Observation Period 3-4, group Mean [1]: 0.2
Sneezes, Observation Period 4-5, group Mean [1]: 0.5
Sneezes, Observation Period 5-6, group Mean [1]: 0.5
Sneezes, Observation Period 6-7, group Mean [1]: 0.5
Sneezes, Observation Period 7-8, group Mean [1]: 0.0
Sneezes, Observation Period 8-9, group Mean [1]: 0.5
Sneezes, Observation Period 9-10, group Mean [1]: 0.2
Sneezes, Observation Period 10-11, group Mean [2]: 0.0
Sneezes, Observation Period 11-12, group Mean [2]: 0.0
Sneezes, Observation Period 12-13, group Mean [2]: 0.0
Sneezes, Observation Period 13-14, group Mean [2]: 0.0
Sneezes, Observation Period 14-15, group Mean [2]: 0.0
Total Sneezes, group Mean (Mean of n=6 animals, whole observation period 0-15 (10 min Citric acid (1M) exposure + Post Exposure 5 mins), Gefapixant 3.5 mg/Kg p.o., Ifenprodil 1.5 mg/Kg): 3.17
Sneezes, Observation Period 0-1, group Total [3]: 1.0
Sneezes, Observation Period 1-2, group Total [3]: 2.0
Sneezes, Observation Period 2-3, group Total [3]: 2.0
Sneezes, Observation Period 3-4, group Total [3]: 1.0
Sneezes, Observation Period 4-5, group Total [3]: 3.0
Sneezes, Observation Period 5-6, group Total [3]: 3.0
Sneezes, Observation Period 6-7, group Total [3]: 3.0
Sneezes, Observation Period 7-8, group Total [3]: 0.0
Sneezes, Observation Period 8-9, group Total [3]: 3.0
Sneezes, Observation Period 9-10, group Total [3]: 1.0
Sneezes, Observation Period 10-11, group Total [4]: 0.0
Sneezes, Observation Period 11-12, group Total [4]: 0.0
Sneezes, Observation Period 12-13, group Total [4]: 0.0
Sneezes, Observation Period 13-14, group Total [4]: 0.0
Sneezes, Observation Period 14-15, group Total [4]: 0.0
first onset of cough (citric acid (1M) exposure, Gefapixant 3.5 mg/Kg p.o., Ifenprodil 1.5 mg/Kg p.o., group mean, n=6): 49.7 s
average number of sneezes per animal (citric acid (1M) exposure, Gefapixant 3.5 mg/Kg p.o., Ifenprodil 1.5 mg/Kg p.o., n=6): 3.17 sneezes per animal
Onset (sec), Mean (citric acid (1M) exposure, group mean, n=6): 49.7 s
Onset (sec), individual animal (citric acid (1M) exposure, individual animals 1-6): 72 s and 24 s and 64 s and 36 s and 32 s and 70 s
Sneezes, Observation Period 0-1 [5]: 0 (5×) and 1
Sneezes, Observation Period 1-2 [5]: 0 (4×) and 1 (2×)
Sneezes, Observation Period 2-3 [5]: 1 (2×) and 0 (4×)
Sneezes, Observation Period 3-4 [5]: 0 (5×) and 1
Sneezes, Observation Period 4-5 [5]: 1 (3×) and 0 (3×)
Sneezes, Observation Period 5-6 [5]: 0 (3×) and 1 (3×)
Sneezes, Observation Period 6-7 [5]: 1 (3×) and 0 (3×)
Sneezes, Observation Period 7-8 [5]: 0
Sneezes, Observation Period 8-9 [5]: 1 (3×) and 0 (3×)
Sneezes, Observation Period 9-10 [5]: 0 (5×) and 1
Sneezes, Observation Period 10-11 [6]: 0
Sneezes, Observation Period 11-12 [6]: 0
Sneezes, Observation Period 12-13 [6]: 0
Sneezes, Observation Period 13-14 [6]: 0
Sneezes, Observation Period 14-15 [6]: 0
Total Sneezes (individual animals (ID 1-6), whole observation period 0-15 (10 min Citric acid (1M) exposure + Post Exposure 5 mins), Gefapixant 3.5 mg/Kg p.o., Ifenprodil 1.5 mg/Kg): 4 (2×) and 3 and 5 and 2 and 1
Cough, observation period 0-1, Mean (min 0-1 of citric acid (1M) exposure, group mean, n=6): 0.5
Cough, observation period 0-1, individual animal (min 0-1 of citric acid (1M) exposure, individual animals 1-6): 0 (3×) and 1 (3×)
Cough, observation period 0-1, Total (min 0-1 of citric acid (1M) exposure, sum over 6 animals): 3.0
Cough, observation period 1-2, Mean (min 1-2 of citric acid (1M) exposure, group mean, n=6): 2.0
Cough, observation period 1-2, individual animal (min 1-2 of citric acid (1M) exposure, individual animals 1-6): 1 (2×) and 3 (2×) and 2 (2×)
Cough, observation period 1-2, Total (min 1-2 of citric acid (1M) exposure, sum over 6 animals): 12.0
Cough, observation period 2-3, Mean (min 2-3 of citric acid (1M) exposure, group mean, n=6): 3.0
Cough, observation period 2-3, individual animal (min 2-3 of citric acid (1M) exposure, individual animals 1-6): 1 and 3 (2×) and 4 and 5 and 2
Cough, observation period 2-3, Total (min 2-3 of citric acid (1M) exposure, sum over 6 animals): 18.0
Cough, observation period 3-4, Mean (min 3-4 of citric acid (1M) exposure, group mean, n=6): 2.3
Cough, observation period 3-4, individual animal (min 3-4 of citric acid (1M) exposure, individual animals 1-6): 2 (3×) and 3 and 4 and 1
Cough, observation period 3-4, Total (min 3-4 of citric acid (1M) exposure, sum over 6 animals): 14.0
Cough, observation period 4-5, Mean (min 4-5 of citric acid (1M) exposure, group mean, n=6): 2.8
Cough, observation period 4-5, individual animal (min 4-5 of citric acid (1M) exposure, individual animals 1-6): 2 (2×) and 3 (3×) and 4
Cough, observation period 4-5, Total (min 4-5 of citric acid (1M) exposure, sum over 6 animals): 17.0
Cough, observation period 5-6, Mean (min 5-6 of citric acid (1M) exposure, group mean, n=6): 2.7
Cough, observation period 5-6, individual animal (min 5-6 of citric acid (1M) exposure, individual animals 1-6): 1 and 3 (3×) and 2 and 4
Cough, observation period 5-6, Total (min 5-6 of citric acid (1M) exposure, sum over 6 animals): 16.0
Cough, observation period 6-7, Mean (min 6-7 of citric acid (1M) exposure, group mean, n=6): 2.3
Cough, observation period 6-7, individual animal (min 6-7 of citric acid (1M) exposure, individual animals 1-6): 1 and 2 (3×) and 4 and 3
Cough, observation period 6-7, Total (min 6-7 of citric acid (1M) exposure, sum over 6 animals): 14.0
Cough, observation period 7-8, Mean (min 7-8 of citric acid (1M) exposure, group mean, n=6): 1.7
Cough, observation period 7-8, individual animal (min 7-8 of citric acid (1M) exposure, individual animals 1-6): 2 (4×) and 1 (2×)
Cough, observation period 7-8, Total (min 7-8 of citric acid (1M) exposure, sum over 6 animals): 10.0
Cough, observation period 8-9, Mean (min 8-9 of citric acid (1M) exposure, group mean, n=6): 2.0
Cough, observation period 8-9, individual animal (min 8-9 of citric acid (1M) exposure, individual animals 1-6): 2 (4×) and 3 and 1
Cough, observation period 8-9, Total (min 8-9 of citric acid (1M) exposure, sum over 6 animals): 12.0
Cough, observation period 9-10, Mean (min 9-10 of citric acid (1M) exposure, group mean, n=6): 1.7
Cough, observation period 9-10, individual animal (min 9-10 of citric acid (1M) exposure, individual animals 1-6): 2 (3×) and 3 and 0 and 1
Cough, observation period 9-10, Total (min 9-10 of citric acid (1M) exposure, sum over 6 animals): 10.0
Cough, observation period 10-11, Mean (min 10-11, post exposure, group mean, n=6): 1.5
Cough, observation period 10-11, individual animal (min 10-11, post exposure, individual animals 1-6): 1 (3×) and 2 (3×)
Cough, observation period 10-11, Total (min 10-11, post exposure, sum over 6 animals): 9.0
Cough, observation period 11-12, Mean (min 11-12, post exposure, group mean, n=6): 0.5
Cough, observation period 11-12, individual animal (min 11-12, post exposure, individual animals 1-6): 0 (3×) and 1 (3×)
Cough, observation period 11-12, Total (min 11-12, post exposure, sum over 6 animals): 3.0
Cough, observation period 12-13, Mean (min 12-13, post exposure, group mean, n=6): 0.5
Cough, observation period 12-13, individual animal (min 12-13, post exposure, individual animals 1-6): 1 (3×) and 0 (3×)
Cough, observation period 12-13, Total (min 12-13, post exposure, sum over 6 animals): 3.0
Cough, observation period 13-14, Mean (min 13-14, post exposure, group mean, n=6): 0.2
Cough, observation period 13-14, individual animal (min 13-14, post exposure, individual animals 1-6): 0 (5×) and 1
Cough, observation period 13-14, Total (min 13-14, post exposure, sum over 6 animals): 1.0
Cough, observation period 14-15, Mean (min 14-15, post exposure, group mean, n=6): 0.0
Cough, observation period 14-15, individual animal (min 14-15, post exposure, individual animals 1-6): 0
Cough, observation period 14-15, Total (min 14-15, post exposure, sum over 6 animals): 0.0
